# Columns and labels:
# [1] = Encapsulation efficiency of small molecule pharmaceutical agents using excipient formulations; assay type: physicochemical; settings: PEG-PPS system
# Procedure: Samples used in Table 2 were prepared as follows. 10 mg of PEG-PPS was added to a 1.5 mL centrifuge tube with either 90 mg of PEG600 or DBU-HCl, and 2 mg of either paclitaxel or dexamethasone. This was heated at 95° C. for 15 min and mixed thoroughly. After cooling to RT, the blend was slowly diluted to 1 mL with distilled water. The free pharmaceutical agent was pelleted via centrifugation for 10 minutes at 10,000 g, and the pellet and supernatant were separately freeze dried, and analyzed in THF via gel permeation chromatography. Dexamethasone and paclitaxel results were quantified using a standard curve.
# [2] = system: caco-2 cells (enterocytes) and lymphatic endothelial cells (LECs); test: Transport in coculture model of gut lymphatic uptake; assay type: in vitro ADME; settings: caco-2/LEC coculture
# Procedure: Given that PEG-PPS nanoparticles can survive harsh conditions such as gastric pH, we contemplated their transport in the gut lymphatics, determining their potential to be processed by mechanisms related to fat uptake in the gut. This was measured using a coculture model of caco-2 cells (enterocytes) and lymphatic endothelial cells (LECs), allowing full characterization of uptake, packaging, and transit (collectively referred to as transport). It was determined that the surface characteristics of PPS-based nanoparticles can be engineered to provide for effective transport: for example, particles on which about 10% of the terminal chain groups were substituted with a carboxyl functionality were transported at a level 5-fold higher than that of equivalent particles lacking a surface charge. Other surface charging moieties, such as sulfates and sulfones, are similarly effective after optimization.
Molecule,"Encapsulation, method of the invention versus solvent dispersion [1]",Uptake / transport [2]
C[C@@H]1[C@H](O)[C@@H](C)/C=C/C=C/C=C/C=C/C=C/C=C/C=C/[C@H](O[C@@H]2O[C@H](C)[C@@H](O)[C@H](N)[C@@H]2O)C[C@@H]2O[C@](O)(C[C@@H](O)C[C@@H](O)[C@H](O)CC[C@@H](O)C[C@@H](O)CC(=O)O[C@H]1C)C[C@H](O)[C@H]2C(=O)O [amphotericin B],more efficiently encapsulated via solvent dispersion,
CO[C@H]1C[C@@H]2CC[C@@H](C)[C@@](O)(O2)C(=O)C(=O)N2CCCC[C@H]2C(=O)O[C@H]([C@H](C)C[C@@H]2CC[C@@H](OCCO)[C@H](OC)C2)CC(=O)[C@H](C)/C=C(\C)[C@@H](O)[C@@H](OC)C(=O)[C@H](C)C[C@H](C)/C=C/C=C/C=C/1C [everolimus],efficiently encapsulated,
CC(=O)O[C@H]1C(=O)[C@@]2(C)[C@H]([C@H](OC(=O)c3ccccc3)[C@]3(O)C[C@H](OC(=O)[C@H](O)[C@@H](NC(=O)c4ccccc4)c4ccccc4)C(C)=C1C3(C)C)[C@]1(OC(C)=O)CO[C@@H]1C[C@@H]2O [paclitaxel],more efficiently encapsulated via the method of the invention,
dextran,,not well transported
